Data on two compounds can be found in patent publication US20110136883A1, “GRANULATION OF ACTIVE PHARMACEUTICAL INGREDIENTS” (LEK PHARMACEUTICALS D.D., priority 2008, published 2011).

Common to all, as to format: physicochemical
The nature of data set [1]: Physical properties of bulk powder / final granulate (moisture, densities, compressibility, flowability, angle of repose). The procedure: Therefore, an oral pharmaceutical dosage needs a high dose of eprosartan mesylate to be incorporated into the pharmaceutical formulation in order to achieve the desired biological effect (here: significant reduction of blood pressure). The recommended daily starting and usual maintenance dose of eprosartan mesylate when used as monotherapy is 735.8 mg, equivalent to 600 mg eprosartan, available as the commercial Teveten 600 mg tablets. Therefore, the amount of excipients, required to achieve satisfactory technological properties (i.e. flowability, compressibility) should be the least possible to keep the weight of the tablet as low as possible (i.e. less than 1000 mg). Solubility, flowability or compressibility can be determined by using known methods in the art, for example the methods explained in the European Pharmacopoeia, 6th Edition. Larger tablets are in the light of patient compliance less preferred. WO 2006/052461 A1 proposes to enhance bioavailability of eprosartan by addition of substantial amounts of a solubilizer and an emulsifier.
Physical properties of briquetting powder as well as final mixture are important for a successful technological procedure using NAMADG.
Further, the impact of various nonaqueos liquid excipients on the formulation of Eprosartan tablets obtained from Examples 3 to 7 (cf. Tables 2 and 3), referring to a matrix of 1000 mg (mass after NAMADG+briquetting+sieving+blending), are summarized in Table 4.

Data set [2] in a line: Hygroscopicity. As to conditions: at over 60% RH. The procedure: Hygroscopicity of an API or excipient can be measured by methods known to a skilled person. Mainly, such methods comprise determining the mass of small amounts of sample (i.e. 5-10 mg) as a function of time, while varying the controlled relative humidity and/or temperature in the environment. Data on hygroscopicity of mainly used excipients can be obtained from Handbook of Pharmaceutical Excipients, 4th edition, Rowe R C, Sheskey P J, Weller P J, eds.; Pharmaceutical Press and American Pharmaceutical Association, London-Washington, UK-USA, 2003.

Data set [3] can be described thus: X-ray diffraction check of eprosartan mesylate form (physical stability during processing). Particulars: ambient temperature and humidity used throughout the NAMADG-based method. Here is the method: In order to test the ability of the NAMADG process principle according to the present invention for preparing tablets without occurrence different polymorphic forms of the API in the product, a placebo powder without API and anhydrous eprosartan mesylate processed according to Examples 2 to 7 were investigated. All examples were checked for eprosartan form. For comparison tests were conducted after conventional wet granulation conditions.
As a result, physical stability of the eprosartan mesylate was proven during processes when using the most critical API form, i.e. the anhydrate. […] The final tablet form and placebo powder were analyzed by X-ray diffraction (XRD) pattern to confirm presence of anhydrous form of eprosartan mesylate. More generally, X-ray diffraction (XRD) pattern can be obtained by methods known in the art, for example using Philips X'Pert PRO diffractometer with X'Celerator detector while exposing the searched material to CuKa radiation.

[4] abbreviates: bulk eprosartan, particle size <10μ.

For the compound `CCCCc1ncc(/C=C(\Cc2cccs2)C(=O)O)n1Cc1ccc(C(=O)O)cc1.CS(=O)(=O)O` [eprosartan mesylate, (E)-α-[2-n-butyl-1-[(4-carboxyphenyl)methyl]-1H-imidazol-5-yl]methylene-2-thiophenepropionic acid monomethanesulfonate], the flowability result in data set [1] (drug per se, sticking on punches) is “below 0.15 g/sec”. The hygroscopicity entry in data set [2] is “hygroscopic”. The “physical and chemical stability” value in data set [3] was “physically and chemically stable”.

With `CCCCc1ncc(/C=C(\Cc2cccs2)C(=O)O)n1Cc1ccc(C(=O)O)cc1` [Bulk eprosartan], in data set [1] (setting [4]), the “Angle of repose (°)” value is reported as more than 43 °, the “Compressibility (%)” value is recorded as more than 30%, the “Flow density” value was more than 4.00 mL/g and the “Moisture (%)” value is given as 0.1-0.5%. Further, in data set [1] (setting [4]), the “Tapped density” value is more than 3.00 mL/g and the “flowability” value is less than 0.10 g/s.
